Data as given in US20080287430A1, “Furan Compounds Useful As Ep1 Receptor Antagonists” (priority 2005, published 2008).
Where a name gives a salt, the structure may show the parent alone.

Biological target: T1, human EP1 receptor (Homo sapiens, UniProt P34995)
T1 construct: expressed in transfected cells; host or cells: CHO-K1
T1 sequence (P34995 1-402): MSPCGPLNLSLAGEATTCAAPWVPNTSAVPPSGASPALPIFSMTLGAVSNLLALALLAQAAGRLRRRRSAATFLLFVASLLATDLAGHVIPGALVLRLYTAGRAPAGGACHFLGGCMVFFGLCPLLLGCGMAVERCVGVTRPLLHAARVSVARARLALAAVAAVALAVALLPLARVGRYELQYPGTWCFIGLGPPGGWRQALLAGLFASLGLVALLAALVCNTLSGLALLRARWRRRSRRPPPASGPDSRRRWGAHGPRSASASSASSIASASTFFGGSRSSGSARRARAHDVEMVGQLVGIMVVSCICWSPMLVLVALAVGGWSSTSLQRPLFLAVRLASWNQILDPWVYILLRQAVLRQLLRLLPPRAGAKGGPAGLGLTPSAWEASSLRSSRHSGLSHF
Experiment: human EP1 calcium mobilisation assay
Type: cell-based
Conditions: human EP1, PGE2-induced calcium mobilisation in CHO-K1 cells; free bases or sodium salts; averages of a number of experiments; read-out: functional pKi value (converted)
Protocol: Briefly, the antagonist properties of compounds are assessed by their ability to inhibit the mobilisation of intracellular calcium ([Ca^2+]i) in response to activation of EP1 or EP3 receptors by the natural agonist hormone prostaglandin E2 (PGE2). Increasing concentrations of antagonist reduce the amount of calcium that a given concentration of PGE2 can mobilise. The net effect is to displace the PGE2 concentration-effect curve to higher concentrations of PGE2. The amount of calcium produced is assessed using a calcium-sensitive fluorescent dye such as Fluo-4, AM and a suitable instrument such as a Fluorimetric Imaging Plate Reader (FLIPR). Increasing amounts of [Ca^2+]i produced by receptor activation increase the amount of fluorescence produced by the dye and give rise to an increasing signal. The signal may be detected using the FLIPR instrument and the data generated may be analysed with suitable curve-fitting software.
The human EP1 or EP3 calcium mobilisation assay (hereafter referred to as ‘the calcium assay’) utilises Chinese hamster ovary-K1(CHO-K1) cells into which a stable (pCIN; BioTechniques 20 (1996): 102-110) vector containing either EP1 or EP3 cDNA has previously been transfected. Cells are cultured in suitable flasks containing culture medium such as DMEM:F-12 supplemented with 10% v/v foetal calf serum, 2 mM L-glutamine, 0.25 mg/ml geneticin, 100 μM flurbiprofen and 10 μg/ml puromycin.
For assay, cells are harvested using a proprietary reagent that dislodges cells such as Versene. Cells are re-suspended in a suitable quantity of fresh culture media for introduction into a 384-well plate. Following incubation for 24 hours at 37° C. the culture media is replaced with a medium containing Fluo-4 and the detergent pluronic acid, and a further incubation takes place. Concentrations of compounds are then added to the plate in order to construct concentration-effect curves. This may be performed on the FLIPR in order to assess the agonist properties of the compounds. Concentrations of PGE2 are then added to the plate in order to assess the antagonist properties of the compounds.
The data so generated may be analysed by means of a computerised curve-fitting routine. The concentration of compound that elicits a half-maximal inhibition of the calcium mobilisation induced by PGE2 (pIC50) may then be estimated.

SMILES	Ki [µM]
O=C(Nc1c(F)cccc1F)c1ccc(Cc2cc(Cl)ccc2OCc2ccc(Cl)cc2Cl)o1 [Example 89, 5-[(5-Chloro-2-{[(2,4-dichlorophenyl)methyl]-oxy}phenyl)methyl]-N-(2,6-difluorophenyl)-2-furancarboxamide]	< 1
O=C(Nc1c(F)cccc1F)c1ccc(Cc2cc(Cl)ccc2OCc2ccc(Cl)cc2)o1 [Example 90, 5-[(5-Chloro-2-{[(4-chlorophenyl)methyl]oxy}-phenyl)methyl]-N-(2,6-difluorophenyl)-2-furancarboxamide]	< 1
O=C(Nc1c(F)cccc1F)c1ccc(Cc2cc(Cl)ccc2OCc2ccccn2)o1 [Example 91, 5-({5-Chloro-2-[(2-pyridinylmethyl)oxy]phenyl}methyl)-N-(2,6-difluorophenyl)-2-furancarboxamide]	< 1
O=C(Nc1c(F)cccc1F)c1ccc(Cc2cc(Cl)ccc2OCc2cccnc2)o1 [Example 92, 5-({5-Chloro-2-[(3-pyridinylmethyl)oxy]phenyl}methyl)-N-(2,6-difluorophenyl)-2-furancarboxamide]	< 1
CCCOc1ccc(Cl)cc1Cc1ccc(C(=O)Nc2c(F)cccc2F)o1 [Example 93, 5-{[5-Chloro-2-(propyloxy)phenyl]methyl}-N-(2,6-difluorophenyl)-2-furancarboxamide]	< 1
O=C(Nc1c(F)cccc1F)c1ccc(Cc2cc(Cl)ccc2OCC2CC2)o1 [Example 94, 5-({5-Chloro-2-[(cyclopropylmethyl)oxy]-phenyl}methyl)-N-(2,6-difluorophenyl)-2-furancarboxamide]	< 1
O=C(Nc1c(F)cccc1F)c1ccc(Cc2cc(Cl)ccc2OC2CCCC2)o1 [Example 95, 5-{[5-Chloro-2-(cyclopentyloxy)phenyl]-methyl}-N-(2,6-difluorophenyl)-2-furancarboxamide]	< 1
O=C(Nc1c(F)cccc1F)c1ccc(Cc2cc(Cl)ccc2OCC2CCCCC2)o1 [Example 96, 5-({5-Chloro-2-[(cyclohexylmethyl)oxy]-phenyl}methyl)-N-(2,6-difluorophenyl)-2-furancarboxamide]	< 1
CCC(CC)COc1ccc(Cl)cc1Cc1ccc(C(=O)Nc2c(F)cccc2F)o1 [Example 97, 5-({5-Chloro-2-[(2-ethylbutyl)oxy]phenyl}meth-yl)-N-(2,6-difluorophenyl)-2-furancarboxamide]	< 1
COc1ccc2[nH]c(-c3ccc(Cc4cc(Cl)ccc4OCc4ccccc4)o3)nc2c1 [Example 100, 2-[5-({5-Chloro-2-[(phenylmethyl)oxy]phenyl}methyl)-2-furanyl]-5-(methyloxy)-1H-benzimidazole]	< 1
Clc1ccc(OCc2ccccc2)c(Cc2ccc(-c3nc4cscc4[nH]3)o2)c1 [Example 101, 2-[5-({5-Chloro-2-[(phenylmethyl)oxy]phenyl}methyl)-2-furanyl]-1H-thieno[3,4-d]imidazole]	< 1
Clc1ccc(OCc2ccccc2)c(Cc2ccc(-c3nc4nccnc4[nH]3)o2)c1 [Example 102, 2-[5-({5-Chloro-2-[(phenylmethyl)oxy]phenyl}methyl)-2-furanyl]-1H-imidazo[4,5-b]pyrazine]	< 1
CN1CCN(c2ccc3[nH]c(-c4ccc(Cc5cc(Cl)ccc5OCc5ccccc5)o4)nc3c2)CC1 [Example 103, 2-[5-({5-Chloro-2-[(phenylmethyl)oxy]phenyl}methyl)-2-furanyl]-5-(4-methyl-1-piperazinyl)-1H-benzimidazolehydrochloride]	< 1
CC(C)COc1ccc(Cl)cc1Cc1ccc(-c2nc3cscc3[nH]2)o1 [Example 109, 2-[5-({5-Chloro-2-[(2-methylpropyl)oxy]-phenyl}methyl)-2-furanyl]-1H-thieno[3,4-d]imidazole]	< 1

The remaining lines, values ahead:

Ki [µM]	SMILES
> 1	CC(C)COc1ccc(Cl)cc1Cc1ccc(-c2nc3ccc(Br)cc3[nH]2)o1 [Example 110, 5-Bromo-2-[5-({5-chloro-2-[(2-methylpropyl)oxy]-phenyl}methyl)-2-furanyl]-1H-benzimidazolehydrochloride]
< 1	CCN1CCN(c2ccc3nc(-c4ccc(Cc5cc(Cl)ccc5OCC(C)C)o4)[nH]c3c2)CC1 [Example 114, 2-[5-({5-Chloro-2-[(2-methylpropyl)oxy]-phenyl}methyl)-2-furanyl]-5-(4-ethyl-1-piperazinyl)-1H-benzimidazoletrihydrochloride]
< 1	CC(C)COc1ccc(Cl)cc1Cc1ccc(-c2nc3ncccc3[nH]2)o1 [Example 116, 2-[5-({5-Chloro-2-[(2-methylpropyl)oxy]phenyl}-methyl)-2-furanyl]-1H-imidazo[4,5-b]pyridine]
< 1	CC(C)COc1ccc(Cl)cc1Cc1ccc(-c2nc3cnc4ccccc4c3[nH]2)o1 [Example 118, 2-[5-({5-Chloro-2-[(2-methylpropyl)oxy]phenyl}-methyl)-2-furanyl]-1H-imidazo[4,5-c]quinoline]
< 1	CC(C)COc1ccc(Cl)cc1Cc1ccc(-c2nc3cc4cn[nH]c4cc3[nH]2)o1 [Example 119, 6-[5-({5-Chloro-2-[(2-methylpropyl)oxy]phenyl}-methyl)-2-furanyl]-1,5-dihydroimidazo[4,5-f]indazole]
< 1	Clc1ccc(OCc2ccccc2)c(Cc2ccc(-c3nc4cnccc4[nH]3)o2)c1 [Example 120, 2-[5-({5-Chloro-2-[(phenylmethyl)oxy]-phenyl}methyl)-2-furanyl]-1H-imidazo[4,5-c]pyridine hydrochloride]
< 1	Clc1ccc(OCc2ccccc2)c(Cc2ccc(-c3nc4ncccc4[nH]3)o2)c1 [Example 121, 2-[5-({5-Chloro-2-[(phenylmethyl)oxy]-phenyl}methyl)-2-furanyl]-1H-imidazo[4,5-b]pyridine]
< 1	CC(C)COc1ccc(Cl)cc1Cc1ccc(-c2nc3cc(F)ccc3[nH]2)o1 [Example 122, 2-[5-({5-Chloro-2-[(2-methyipropyl)oxy]phenyl}methyl)-2-furanyl]-5-fluoro-1H-benzimidazole]
< 1	CC(C)COc1ccc(Cl)cc1Cc1ccc(-c2nc3cc(Cl)ccc3[nH]2)o1 [Example 123, 5-Chloro-2-[5-({5-chloro-2-[(2-methylpropyl)oxy]phenyl}-methyl)-2-furanyl]-1H-benzimidazole]
< 1	CC(C)COc1ccc(Cl)cc1Cc1ccc(-c2nc3cc(F)c(F)cc3[nH]2)o1 [Example 124, 2-[5-({5-Chloro-2-[(2-methylpropyl)oxy]phenyl}-methyl)-2-furanyl]-5,6-difluoro-1H-benzimidazole]
< 1	Cc1ccc2[nH]c(-c3ccc(Cc4cc(Cl)ccc4OCC(C)C)o3)nc2c1 [Example 125, 2-[5-({5-Chloro-2-[(2-methylpropyl)oxy]phenyl}-methyl)-2-furanyl]-5-methyl-1H-benzimidazole]
< 1	CC(C)COc1ccc(Cl)cc1Cc1ccc(-c2nc3cc(C(F)(F)F)ccc3[nH]2)o1 [Example 126, 2-[5-({5-Chloro-2-[(2-methylpropyl)oxy]phenyl}-methyl)-2-furanyl]-5-(trifluoromethyl)-1H-benzimidazole]
< 1	CC(C)COc1ccc(Cl)cc1Cc1ccc(-c2nc3cc(C(C)(C)C)ccc3[nH]2)o1 [Example 127, 2-[5-({5-Chloro-2-[(2-methylpropyl)oxy]phenyl}-methyl)-2-furanyl]-5-(1,1-dimethylethyl)-1H-benzimidazole]
< 1	CC(C)COc1ccc(Cl)cc1Cc1ccc(-c2nc3ccc(F)c(F)c3[nH]2)o1 [Example 128, 2-[5-({5-Chloro-2-[(2-methylpropyl)oxy]phenyl}-methyl)-2-furanyl]-4,5-difluoro-1H-benzimidazole]
< 1	Fc1cc2nc(-c3ccc(Cc4cc(Cl)ccc4OCc4ccccc4)o3)[nH]c2cc1F [Example 129, 2-[5-({5-Chloro-2-[(phenylmethyl)oxy]phenyl}methyl)-2-furanyl]-5,6-difluoro-1H-benzimidazole]
< 1	Fc1cccc2nc(-c3ccc(Cc4cc(Cl)ccc4OCc4ccccc4)o3)[nH]c12 [Example 131, 2-[5-({5-Chloro-2-[(phenylmethyl)oxy]-phenyl}methyl)-2-furanyl]-4-fluoro-1H-benzimidazole]
